For 4 compounds, Activity results are on record in ChEMBL document CHEMBL1148689, “Isolation of new phenylacetylingol derivatives that reactivate HIV-1 latency and a novel spirotriterpenoid from Euphorbia officinarum latex” (2007).

Experiment [1] concerns Jurkat. Description: Cell cycle arrest in human Jurkat cells assessed as accumulation at G2/M phase at 50 uM after 36 hrs by flow cytometry. The class given is functional. (Flow cytometry measures light scatter and fluorescence of single cells or particles in a stream.)
Experiment [2] has as its system Jurkat. Description: Induction of HIV-LTR transactivation assessed by GFP expression in Jurkat cells at 25 uM after 36 hrs by flow cytometry. The class given is cell-based. To be noted: Human immunodeficiency virus.
Experiment [3] deals with Jurkat. Nature of the experiment: Cell cycle arrest in human Jurkat cells assessed as accumulation at S phase at 10 uM after 36 hrs by flow cytometry. The class given is functional.
Experiment [4] deals with Jurkat. Nature of the experiment: Cell cycle arrest in human Jurkat cells assessed as accumulation at G0/G1 phase at 10 uM after 36 hrs by flow cytometry. The experiment is classed as functional.
For experiment [5], the system named is Jurkat. Description: Cell cycle arrest in human Jurkat cells assessed as accumulation at G0/G1 phase at 50 uM after 36 hrs by flow cytometry. The class given is functional.
Experiment [6] concerns Jurkat. Nature of the experiment: Cell cycle arrest in human Jurkat cells assessed as accumulation at G2/M phase at 10 uM after 36 hrs by flow cytometry. The experiment is classed as functional.
The subject of experiment [7] is Jurkat. Description: Cell cycle arrest in human Jurkat cells assessed as accumulation at sub-G0 phase at 50 uM after 36 hrs by flow cytometry. The experiment is classed as functional.
Experiment [8] has as its system Jurkat. Description: Induction of HIV-LTR transactivation assessed by GFP expression in Jurkat cells at 10 uM after 36 hrs by flow cytometry. The experiment is classed as cell-based. Particulars: Human immunodeficiency virus.
The subject of experiment [9] is Jurkat. Nature of the experiment: Induction of HIV-LTR transactivation assessed by GFP expression in Jurkat cells at 50 uM after 36 hrs by flow cytometry. To be noted: Human immunodeficiency virus. The class given is cell-based.
Experiment [10] concerns Jurkat. Description: Cell cycle arrest in human Jurkat cells assessed as accumulation at sub-G0 phase at 10 uM after 36 hrs by flow cytometry. The experiment is classed as functional.
The subject of experiment [11] is Jurkat. Description: Cell cycle arrest in human Jurkat cells assessed as accumulation at S phase at 50 uM after 36 hrs by flow cytometry. The experiment is classed as functional.
In experiment [12] the test system is Jurkat. Nature of the experiment: Induction of HIV-LTR transactivation assessed by GFP expression in Jurkat cells at 10 ng/ml after 36 hrs by flow cytometry. The class given is cell-based. Particulars: Human immunodeficiency virus.

Structures are written as SMILES. Calls of active or inactive are those of the source. No cut-off for these calls is given here.

For the compound `CO[C@H]1C(OC(C)=O)/C(C)=C/[C@@]23O[C@@]2(C[C@H](C)[C@@H]3OC(=O)Cc2ccccc2)C(=O)[C@H](C)[C@H](OC(C)=O)[C@@H]2[C@H]1C2(C)C` (some centres undefined), the Activity with Jurkat [1] came out at 9.22%; in the experiment with Jurkat [2], 66%; in the experiment on Jurkat [3], 9.01%; in the experiment with Jurkat [4] it was 77.8%; with Jurkat [5], 81.4%; in the experiment on Jurkat [6], 10.8%. The Activity worked out at 3.97% in the experiment with Jurkat [7]; 25.5% with Jurkat [8]; 83.5% in the experiment with Jurkat [9]; 2.34% with Jurkat [10]; 5.31% in the experiment on Jurkat [11].
Compound `CCCCCCCCCCCCCC(=O)O[C@@H]1[C@@H](C)[C@@]2(O)[C@@H](C=C(CO)C[C@]3(O)C(=O)C(C)=C[C@@H]23)[C@@H]2C(C)(C)[C@]12OC(C)=O` returned an Activity in the experiment on Jurkat [12] of 97.3%.
Turning to `COc1ccc(CC(=O)O[C@H]2[C@@H](C)C[C@@]34O[C@@]23/C=C(\C)C(OC(C)=O)[C@H](OC(C)=O)[C@H]2[C@@H]([C@@H](OC(C)=O)[C@@H](C)C4=O)C2(C)C)cc1` (some centres undefined), the Activity in the experiment on Jurkat [1] is on record as 14.7%; in the experiment on Jurkat [3], 21%; in the experiment with Jurkat [4], 60.9%; in the experiment on Jurkat [5] it was 61.5%; in the experiment on Jurkat [6], 16.4%; in the experiment with Jurkat [7], 1.95%. Further, the Activity in the experiment on Jurkat [10] was determined as 1.59%; with Jurkat [11] it was 21.7%. Also, the outcome with Jurkat [2], in the experiment with Jurkat [8] and in the experiment on Jurkat [9] was inactive.
On to `CC(=O)OC1/C(C)=C/[C@@]23O[C@@]2(C[C@H](C)[C@@H]3OC(=O)Cc2ccccc2)C(=O)[C@H](C)[C@H](OC(C)=O)[C@@H]2[C@H]([C@H]1OC(C)=O)C2(C)C` (some centres undefined), for which the Activity with Jurkat [1] is listed as 13.4%; in the experiment on Jurkat [3], 20.9%; with Jurkat [4] it was 61.5%; in the experiment on Jurkat [5], 66.2%; in the experiment on Jurkat [6], 15.9%; in the experiment with Jurkat [7], 1.38%. Besides, the Activity in the experiment on Jurkat [10] is given as 1.52%; with Jurkat [11] it was 18.7%. The result in the experiment with Jurkat [2], in the experiment with Jurkat [8] and with Jurkat [9] was inactive.
